According to US20150231069A1, “ORAL FORMULATIONS OF CHEMOTHERAPEUTIC AGENTS” (priority 2014, published 2015):
Where two headings read alike, the source gives them in different places.

Experiments:
[1] = female, C57BL6, mouse, in vivo
Procedure: One set of experiments was performed in 21 female C57BL6 mice, 8 weeks of age. They were housed and handled according to institutional guidelines. Food and water were given ad libitum. All of the animal experiments were performed in full compliance with a protocol approved by the University Animal Use Committee.
For the oral treatment with paclitaxel (with or without delivery system), 10 mg per gram body weight of inventive formulation was administered by gavage under light diethyl ether anesthesia. Blood samples were collected at, 0, 15 min, 30 min, 1 h, 2 h, 4 h, 8 h, 12 h, and 16 h after drug administration of the oral formulation.
An i.v. formulation of paclitaxel 40 mg/kg was injected into a tail vein under light diethyl ether anesthesia at a dosage of 10 mg per gram body weight. Blood samples were collected at 0, 15 min, 30 min, 1 h, 2 h, 4 h, 8 h, 12 h, and 16 h after IV administration of paclitaxel.
Blood samples were analyzed with a pre-calibrated, validated HPLC method using HPLC Equipment. […] The solvent eluent was monitored using a Varian UV-Visible spectro-photometric detector set at 227 nm. […]
Paclitaxel quantitation was based on standard curves of the peak area and ratios of known amounts of paclitaxel to the internal standard peak from a paclitaxel internal standard. […]

[2] = female, FVB wild-type, mouse, in vivo
Procedure: Another set of experiments were performed with female FVB wild-type mice between 9 weeks and 16 weeks of age. Mice were housed and handed according to institutional guidelines.
For oral treatment with paclitaxel, with or without the inventive delivery system, 10 mg per g body weight of formulation was administered by gavage under light diethyl ether anesthesia. Blood samples were collected at 0, 15 min, 30 min, 1 h, 2 h, 4 h, 8 h, 12 h, and 16 h after oral administration.
For intravenous administration, 10 mg per g body weight of an i.v. formulation of paclitaxel was injected into a tail vein under light diethyl ether anesthesia. Blood samples were collected at 0, 15 min, 30 min, 1 h, 2 h, 4 h, 8 h, 12 h, and 16 h after i.v. administration.
Paclitaxel quantitation was based on the HPLC standard curves of the peak area and ratios of known amounts of paclitaxel to the internal standard peak from paclitaxel internal standard.

[3] = Human clinical bioavailability study, oral versus i.v. paclitaxel; assay type: in vivo
Procedure: An open label, two-treatment, single dose, two-period, cross-over, […] Paclitaxel BMS formulation (175 mg) in 11 patients (male or female) suffering from solid tumors, cancers and malignancies refractory to standard therapy were treated under fasting condition.
In this part of the study, the oral course and IV course were randomized. […]
The IV formulation of paclitaxel ([…]; Rhône-Poulenc Rorer/Aventis, Antony, France) was used for both IV and oral administration of the agent. One hour before oral paclitaxel administration, patients received 1 mg of oral granisetron and oral CsA capsules (500 mg). Patients who completed the first course of oral paclitaxel were eligible to receive IV paclitaxel.
Pharmacokinetic monitoring was performed during course i.v. and oral paclitaxel administration. For plasma paclitaxel and metabolite concentrations, blood samples of 5 mL each were collected in heparinized tubes. After oral administration, blood samples were obtained before dosing, at time 0 min and then 15, 30, 45, 60, 75, 90 minutes, and 2, 3, 4, 7, 10, 24, 30, and 48 h after paclitaxel ingestion. […] After centrifugation, the plasma was transferred to a polypropylene storage tube and stored at −20° C. until analyzed. Paclitaxel and metabolite concentrations in plasma were determined using a validated high-performance liquid chromatography (HPLC) assay.

MCF-7 cells = experiment: Cytotoxicity against MCF-7 cell growth; assay type: cell-based, human
Procedure: The cellular uptake of non-targeted and folic acid (FA)-targeted tumor has affinity for folic acid (breast, tumor, ovarian tumors) microbeads as prepared above was evaluated in human breast carcinoma cell, MCF-7. The microbeads are made specifically to be retained by the tumor sites and tumors have affinity toward the drug and conjugate. To investigate the effect of time on the FA-targeted microbead uptake by FR-bearing cells, […]. MCF-7 cells were incubated with free rhodamine B (free R-B), plain micellar rhodamine B (DOMC/R-B) and FA-micellar rhodamine B (DOMC-FA/R-B) for various periods and visualized using fluorescence microscopy. The cytotoxicity of paclitaxel (PTX) in plain micelles (DOMC/PTX) and FA-micellar PTX (DOMC-FA/PTX) was investigated and compared with that of the free PTX and taxol injection using MCF-7 cells. […] In order to elucidate PTX-loaded micelles induced-apoptosis in MCF-7 cells, Hoechst staining of nuclei was observed after different treatments.

Compound: CC(=O)O[C@H]1C(=O)[C@@]2(C)[C@H]([C@H](OC(=O)c3ccccc3)[C@]3(O)C[C@H](OC(=O)[C@H](O)[C@@H](NC(=O)c4ccccc4)c4ccccc4)C(C)=C1C3(C)C)[C@]1(OC(C)=O)CO[C@@H]1C[C@@H]2O [paclitaxel]
- oral bioavailability (ratio of AUC after oral and after IV, dose corrected) [1]: 6%±1.6
- oral bioavailability (ratio of AUC after oral and after i.v., dose corrected) [2]: 6%±1.6
- AUC ([3]; both sexes, plasma, 75 mg/m2, oral 75 mg/m^2, without delivery system, read-out: mean AUC of orally administered paclitaxel): 420 ± 140 ng·h/mL
- oral bioavailability (ratio of AUC after oral and after i.v., dose corrected) ([3]; without delivery system): 4.3%±1.8
- growth of MCF-7 cells (MCF-7 cells): inhibited the growth of MCF-7 cells
